Data taken from US9458113B2 (Boehringer Ingelheim International GmbH, priority 2014, dated 2016).

target: Human neutrophil elastase (Homo sapiens (Human), UniProt P08246); assay: Human Neutrophil Elastase Assay; type: biochemical; settings: substrate MeOSuc-Ala-Ala-Pro-Val-AMC 250 μM, pH 7.5
Sequence (P08246 30-247): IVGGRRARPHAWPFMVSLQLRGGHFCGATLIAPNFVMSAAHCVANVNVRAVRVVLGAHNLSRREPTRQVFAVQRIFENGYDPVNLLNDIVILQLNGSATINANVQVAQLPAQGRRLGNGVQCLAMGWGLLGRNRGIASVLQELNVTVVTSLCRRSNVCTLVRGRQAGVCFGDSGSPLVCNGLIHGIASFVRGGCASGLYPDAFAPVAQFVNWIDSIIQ
Method: The following buffers were used: Compound buffer: 100 mM Tris, 500 mM NaCl, adjusted to pH 7.5; Assay buffer: 100 mM Tris, 500 mM NaCl, adjusted to pH 7.5, containing 0.01% BSA.
Assay conditions: Test compounds were prediluted in DMSO and subsequently in compound buffer (5% DMSO final). […] After inactivation of the enzyme, fluorescence intensities were measured at 380 nm excitation and 460 nm emission wavelengths.
Each plate contains wells with a high value control (DMSO+enzyme+substrate) and wells with a low value control (DMSO+inactivated enzyme+substrate). IC50 values were estimated using a sigmoidal concentration response curve with variable slope. Means of low values were taken as 0%, means of high values as 100%.

| SMILES | IC50 [nM] |
| --- | --- |
| CN1C(=O)N(c2cccc(C(F)(F)F)c2)C2=C(C(=O)CC2)C1c1ccc(C#N)cc1C(=O)N1Cc2cnn(C)c2C1 (stereo not shown) [Example 1.67] | 4.1 |
| CN1C(=O)N(c2cccc(C(F)(F)F)c2)C2=C(C(=O)CC2)C1c1ccc(C#N)cc1C(=O)N1CCn2ccnc2C1 (stereo not shown) [Example 1.68] | < 1 |
| CN1C(=O)N(c2cccc(C(F)(F)F)c2)C2=C(C(=O)CC2)C1c1ccc(C#N)cc1C(=O)N1CCc2nocc2C1 (stereo not shown) [Example 1.69] | 9.8 |
| CN1C(=O)N(c2cccc(C(F)(F)F)c2)C2=C(C(=O)CC2)C1c1ccc(C#N)cc1C(=O)N1CCn2ncnc2C1 (stereo not shown) [Example 1.70] | 1.9 |
| CN(Cc1ccnn1C)C(=O)c1cc(C#N)ccc1C1C2=C(CCC2=O)N(c2cccc(C(F)(F)F)c2)C(=O)N1C (stereo not shown) [Example 1.71] | < 1 |
| CN(Cc1cncn1C)C(=O)c1cc(C#N)ccc1C1C2=C(CCC2=O)N(c2cccc(C(F)(F)F)c2)C(=O)N1C (stereo not shown) [Example 1.72] | < 1 |
| CN(Cc1ccn(C)n1)C(=O)c1cc(C#N)ccc1C1C2=C(CCC2=O)N(c2cccc(C(F)(F)F)c2)C(=O)N1C (stereo not shown) [Example 1.73] | 1.3 |
| CN(Cc1nccn1C)C(=O)c1cc(C#N)ccc1C1C2=C(CCC2=O)N(c2cccc(C(F)(F)F)c2)C(=O)N1C (stereo not shown) [Example 1.74] | < 1 |
| CN(Cc1nncn1C)C(=O)c1cc(C#N)ccc1C1C2=C(CCC2=O)N(c2cccc(C(F)(F)F)c2)C(=O)N1C (stereo not shown) [Example 1.75] | 1.4 |
| CN1C(=O)N(c2cccc(C(F)(F)F)c2)C2=C(C(=O)CC2)C1c1ccc(C#N)cc1C(=O)NCCN1CCOCC1 (stereo not shown) [Example 1.76] | 4.5 |
| CC(=O)N(C)[C@H]1CCN(C(=O)c2cc(C#N)ccc2C2C3=C(CCC3=O)N(c3cccc(C(F)(F)F)c3)C(=O)N2C)C1 (stereo partly shown) [Example 1.77] | 2.3 |
| CC(=O)N(C)[C@@H]1CCN(C(=O)c2cc(C#N)ccc2C2C3=C(CCC3=O)N(c3cccc(C(F)(F)F)c3)C(=O)N2C)C1 (stereo partly shown) [Example 1.78] | 2.6 |
| CN1C(=O)N(c2cccc(C(F)(F)F)c2)C2=C(C(=O)CC2)C1c1ccc(C#N)cc1C(=O)N1CCC(N2CCOCC2)C1 (stereo not shown) [Example 1.79] | 3 |
| CN1C(=O)N(c2cccc(C(F)(F)F)c2)C2=C(C(=O)CC2)C1c1ccc(C#N)cc1C(=O)NCC(=O)N1CCOCC1 (stereo not shown) [Example 1.80] | 6 |
| CN(CCN1CCOCC1)C(=O)c1cc(C#N)ccc1C1C2=C(CCC2=O)N(c2cccc(C(F)(F)F)c2)C(=O)N1C (stereo not shown) [Example 1.81] | 1.6 |
| CC(=O)N[C@H]1CCN(C(=O)c2cc(C#N)ccc2C2C3=C(CCC3=O)N(c3cccc(C(F)(F)F)c3)C(=O)N2C)C1 (stereo partly shown) [Example 1.83] | 2.2 |
| CC(=O)N[C@@H]1CCN(C(=O)c2cc(C#N)ccc2C2C3=C(CCC3=O)N(c3cccc(C(F)(F)F)c3)C(=O)N2C)C1 (stereo partly shown) [Example 1.84] | 1.3 |
| CC(=O)N1CCN(C(=O)c2cc(C#N)ccc2C2C3=C(CCC3=O)N(c3cccc(C(F)(F)F)c3)C(=O)N2C)CC1 (stereo not shown) [Example 1.85] | 4.6 |
| CN(C)C(=O)c1cc(C#N)ccc1[C@@H]1C2=C(CCC2=O)N(c2cccc(C(F)(F)F)c2)C(=O)N1C [Example 2.2] | 1.1 |
| CN1C(=O)N(c2cccc(C(F)(F)F)c2)C2=C(C(=O)CC2)[C@H]1c1ccc(C#N)cc1C(=O)N1CCOCC1 [Example 2.3] | 2.9 |

| SMILES | IC50 [nM] |
| --- | --- |
| CN1CCN(C(=O)c2cc(C#N)ccc2[C@@H]2C3=C(CCC3=O)N(c3cccc(C(F)(F)F)c3)C(=O)N2C)CC1 [Example 2.4] | 3.1 |
| CN1C(=O)N(c2cccc(C(F)(F)F)c2)C2=C(C(=O)CC2)C1c1ccc(C#N)cc1C(=O)NC1CCC(O)C1 (stereo not shown) [Example 3, 5-Cyano-N-(3-hydroxy-cyclopentyl)-2-[3-methyl-2,5-dioxo-1-(3-trifluoromethyl-phenyl)-2,3,4,5,6,7-hexahydro-1H-cyclopentapyrimidin-4-yl]-benzamide] | 7.6 |
| CN(C)CCN(C)C(=O)c1cc(C#N)ccc1C1C2=C(CCC2=O)N(c2cccc(C(F)(F)F)c2)C(=O)N1C (stereo not shown) [Example 3.1] | 1.3 |
| CCN1CCN(C(=O)c2cc(C#N)ccc2C2C3=C(CCC3=O)N(c3cccc(C(F)(F)F)c3)C(=O)N2C)CC1 (stereo not shown) [Example 3.2] | 8.1 |
| CN1C(=O)N(c2cccc(C(F)(F)F)c2)C2=C(C(=O)CC2)C1c1ccc(C#N)cc1C(=O)N1CCN2CCCC2C1 (stereo not shown) [Example 3.3] | 7.5 |
| CC(C)N1CCN(C(=O)c2cc(C#N)ccc2C2C3=C(CCC3=O)N(c3cccc(C(F)(F)F)c3)C(=O)N2C)CC1 (stereo not shown) [Example 3.4] | 7.3 |
| CN1C(=O)N(c2cccc(C(F)(F)F)c2)C2=C(C(=O)CC2)C1c1ccc(C#N)cc1C(=O)N1C[C@H]2C[C@@H]1C[N+]2(C)C (stereo partly shown) [Example 3.5] | 7 |
| CN1C(=O)N(c2cccc(C(F)(F)F)c2)C2=C(C(=O)CC2)C1c1ccc(C#N)cc1C(=O)N1CCC(N)CC1 (stereo not shown) [Example 4.1] | 15.1 |
| CN1C(=O)N(c2cccc(C(F)(F)F)c2)C2=C(C(=O)CC2)C1c1ccc(C#N)cc1C(=O)NC1CCNCC1 (stereo not shown) [Example 4.2] | 7.1 |
| CN1C(=O)N(c2cccc(C(F)(F)F)c2)C2=C(C(=O)CC2)C1c1ccc(C#N)cc1C(=O)NCCN (stereo not shown) [Example 4.3] | 3.1 |
| CNCCNC(=O)c1cc(C#N)ccc1C1C2=C(CCC2=O)N(c2cccc(C(F)(F)F)c2)C(=O)N1C (stereo not shown) [Example 4.4] | 4.7 |
| CN(CCN)C(=O)c1cc(C#N)ccc1C1C2=C(CCC2=O)N(c2cccc(C(F)(F)F)c2)C(=O)N1C (stereo not shown) [Example 4.5] | 2 |
| CN1C(=O)N(c2cccc(C(F)(F)F)c2)C2=C(C(=O)CC2)C1c1ccc(C#N)cc1C(=O)N[C@H]1CCNC1 (stereo partly shown) [Example 4.6] | 6.9 |
| CN1C(=O)N(c2cccc(C(F)(F)F)c2)C2=C(C(=O)CC2)C1c1ccc(C#N)cc1C(=O)N1CC[C@H](N)C1 (stereo partly shown) [Example 4.7] | 3.3 |
| CN1C(=O)N(c2cccc(C(F)(F)F)c2)C2=C(C(=O)CC2)C1c1ccc(C#N)cc1C(=O)N1CC[C@@H](N)C1 (stereo partly shown) [Example 4.8] | 5.9 |
| CN1C(=O)N(c2cccc(C(F)(F)F)c2)C2=C(C(=O)CC2)C1c1ccc(C#N)cc1C(=O)N[C@@H]1CCNC1 (stereo partly shown) [Example 4.9] | 6.4 |
| CNCCN(C)C(=O)c1cc(C#N)ccc1C1C2=C(CCC2=O)N(c2cccc(C(F)(F)F)c2)C(=O)N1C (stereo not shown) [Example 4.10] | 1.4 |
| CN1C(=O)N(c2cccc(C(F)(F)F)c2)C2=C(C(=O)CC2)C1c1ccc(C#N)cc1C(=O)NCC(C)(C)N (stereo not shown) [Example 4.11] | 6.2 |
| CN[C@H]1CCN(C(=O)c2cc(C#N)ccc2C2C3=C(CCC3=O)N(c3cccc(C(F)(F)F)c3)C(=O)N2C)C1 (stereo partly shown) [Example 4.12] | 3.8 |
| CN1C(=O)N(c2cccc(C(F)(F)F)c2)C2=C(C(=O)CC2)C1c1ccc(C#N)cc1C(=O)N[C@H]1C[C@@H]1N (stereo partly shown) [Example 4.13] | 5.6 |

| SMILES | IC50 [nM] |
| --- | --- |
| CN1C(=O)N(c2cccc(C(F)(F)F)c2)C2=C(C(=O)CC2)C1c1ccc(C#N)cc1C(=O)N[C@H]1C[C@H]1N (stereo partly shown) [Example 4.14] | 4.9 |
| CN1C(=O)N(c2cccc(C(F)(F)F)c2)C2=C(C(=O)CC2)C1c1ccc(C#N)cc1C(=O)N1C[C@H]2C[C@@H]1CN2 (stereo partly shown) [Example 4.15] | 7.3 |
| CC1CN(C(=O)c2cc(C#N)ccc2C2C3=C(CCC3=O)N(c3cccc(C(F)(F)F)c3)C(=O)N2C)CCN1 (stereo not shown) [Example 4.16] | 10.8 |
| CN1C(=O)N(c2cccc(C(F)(F)F)c2)C2=C(C(=O)CC2)C1c1ccc(C#N)cc1C(=O)N1CC2COCC(C1)N2 (stereo not shown) [Example 4.17] | 36.2 |
| CN1C(=O)N(c2cccc(C(F)(F)F)c2)C2=C(C(=O)CC2)C1c1ccc(C#N)cc1C(=O)N1CCNCC1 (stereo not shown) [Example 4] | 7.5 |
| CN1C(=O)N(c2cccc(C(F)(F)F)c2)C2=C(C(=O)CC2)C1c1ccc(C#N)cc1C(=O)NC(C)(C)C#N (stereo not shown) [Example 5, 5-Cyano-N-(cyano-dimethyl-methyl)-2-[3-methyl-2,5-dioxo-1-(3-trifluoromethyl-phenyl)-2,3,4,5,6,7-hexahydro-1H-cyclopentapyrimidin-4-yl]-benzamide] | 3.4 |
| CN1C(=O)N(c2cccc(C(F)(F)F)c2)C2=C(C(=O)CCC2)C1c1ccc(C#N)cc1C(N)=O (stereo not shown) [Example 6, 5-Cyano-2-[3-methyl-2,5-dioxo-1-(3-trifluoromethyl-phenyl)-1,2,3,4,5,6,7,8-octahydro-quinazolin-4-yl]-benzamide] | 1.6 |
| CN1C(=O)N(c2cccc(C(F)(F)F)c2)C2=C(C(=O)CCC2)C1c1ccc(C#N)cc1C(=O)N1CCOCC1 (stereo not shown) [Example 6.1] | 2.9 |
| CN1CCN(C(=O)c2cc(C#N)ccc2C2C3=C(CCCC3=O)N(c3cccc(C(F)(F)F)c3)C(=O)N2C)CC1 (stereo not shown) [Example 6.2] | 5.1 |
| CN1C(=O)N(c2cccc(C(F)(F)F)c2)C2=C(C(=O)CCC2)C1c1ccc(C#N)cc1C(=O)N1CCNCC1 (stereo not shown) [Example 6.3] | 3.5 |
| CN(C)C(=O)c1cc(C#N)ccc1C1C2=C(CCCC2=O)N(c2cccc(C(F)(F)F)c2)C(=O)N1C (stereo not shown) [Example 6.4] | 1.1 |
| CN1C(=O)N(c2ccnc(C(F)(F)F)c2)C2=C(C(=O)CC2)[C@H]1c1ccc(C#N)cc1C(N)=O [Example 8, 5-Cyano-2-[(R)-3-methyl-1-(2-trifluoromethyl-pyridin-4-yl)-2,5-dioxo-2,3,4,5,6,7-hexahydro-1H-cyclopentapyrimidin-4-yl]-benzamide] | 41 |
| CNC(=O)c1cc(C#N)ccc1C1C2=C(CCC2=O)N(c2ccnc(C(F)(F)F)c2)C(=O)N1C (stereo not shown) [Example 8.1] | 25 |
| CN(C)C(=O)c1cc(C#N)ccc1C1C2=C(CCC2=O)N(c2ccnc(C(F)(F)F)c2)C(=O)N1C (stereo not shown) [Example 8.2] | 16.8 |
| CN1C(=O)N(c2ccnc(C(F)(F)F)c2)C2=C(C(=O)CC2)C1c1ccc(C#N)cc1C(=O)N1CCCC1 (stereo not shown) [Example 8.3] | 32.8 |
| CN1C(=O)N(c2ccnc(C(F)(F)F)c2)C2=C(C(=O)CC2)C1c1ccc(C#N)cc1C(=O)N1CCCCC1 (stereo not shown) [Example 8.4] | 181 |
| CN1C(=O)N(c2ccnc(C(F)(F)F)c2)C2=C(C(=O)CC2)C1c1ccc(C#N)cc1C(=O)N1CCOCC1 (stereo not shown) [Example 8.5] | 71.6 |
| CN1C(=O)N(c2cccc(C(F)(F)F)c2)C2=C(C(=O)CC2)C1c1ccc(C#N)cc1CN1CCOCC1 (stereo not shown) [Example 9, 4-[3-Methyl-2,5-dioxo-1-(3-trifluoromethyl-phenyl)-2,3,4,5,6,7-hexahydro-1H-cyclopentapyrimidin-4-yl]-3-morpholin-4-ylmethyl-benzonitrile] | 1.4 |
